{"source": "patent US20140121107A1", "about": "“HERBICIDAL COMPOSITIONS FOR TOLERANT OR RESISTANT RICE CROPS” (Bayer Intellectual Property GmbH, priority 1998, published 2014)", "format_in_all_cases": "in vivo", "key": {"[1]": {"test_system": "Echinochloa crus galli", "experiment": "Herbicidal effect in rice weeds (field trial, Table 7)", "settings": "application in the 3-leaf stage, scoring 42 days after application", "protocol": "(§1) Transgenic rice plants with a resistance to one or more herbicides (A) together with typical weed plants were grown in the open on 2×5 m plots under natural field conditions; alternatively, weed infestation occurred naturally when the rice plants were grown. Fields were set up for field rice or alternatively also for paddy rice.\n(§2) 2, 4, 6 and 8 weeks after the application, the herbicidal activity of the active substances or active substance mixtures was scored visually with reference to the treated plots in comparison to untreated control plots. The damage to, and the development of, all aerial parts of the plants was recorded. Scoring was done on the basis of a percentage sale (100% action=all plants destroyed; 50% action=50% of the plants and green parts of the plants destroyed; 0% action=no recognizable effect=like control plot. The mean of the score values of in each case 4 plots was calculated."}, "[2]": {"test_system": "Cyperus difformis", "experiment": "Herbicidal effect in rice weeds (field trial, Table 5)", "settings": "application in the 3-leaf stage, scoring 36 days after application", "protocol": "as §1\n(§3) […] The damage to, and the development of, all aerial parts of the plants was recorded. Scoring was done on the basis of a percentage sale (100% action=all plants destroyed; 50% action=50% of the plants and green parts of the plants destroyed; 0% action=no recognizable effect=like control plot. The mean of the score values of in each case 4 plots was calculated."}, "[3]": {"test_system": "Echinochloa crus-galli", "experiment": "Herbicidal effect in rice broad-leaved weeds (Table 2)", "settings": "application in the 3-4-leaf stage, scoring 2 weeks after application", "protocol": "as §1, §2"}, "[4]": {"test_system": "Ipomoea sp.", "experiment": "Herbicidal effect in rice weeds (Table 3)", "settings": "application in the 4-leaf stage, scoring 2 weeks after application", "protocol": "as §1, §2"}, "[5]": {"test_system": "Echinochloa crus galli", "experiment": "Herbicidal effect in rice weeds (field trial, Table 4)", "settings": "application in the 4-leaf stage, scoring 42 days after application", "protocol": "as §1, §2"}, "[6]": {"test_system": "Cyperus iria", "experiment": "Herbicidal effect in rice weeds (field trial, Table 6)", "settings": "application in the 3-leaf stage, scoring 42 days after application", "protocol": "as §1, §2"}, "[7]": {"test_system": "Aeschynomene rudis", "experiment": "Herbicidal effect in rice weeds (field trial, Table 8)", "settings": "application in the 3-leaf stage, scoring 28 days after application", "protocol": "as §1, §2"}, "[8]": {"test_system": "Echinochloa crus galli", "experiment": "Herbicidal effect in rice weeds (field trial, Table 9)", "settings": "application in the 5-6-leaf stage, scoring 36 days after application", "protocol": "as §1, §3"}, "[9]": {"test_system": "Echinochloa crus-galli", "experiment": "Herbicidal effect in rice weeds (field trial, Table 11)", "settings": "application in the 4-leaf stage, scoring 26 days after application", "protocol": "as §1, §2"}, "[10]": {"test_system": "Cyperus difformis", "experiment": "Herbicidal effect in rice weeds (field trial, Table 10)", "settings": "15 g A.S./ha; application in the 7-leaf stage; scoring 36 days after application", "protocol": "as §1\nThe damage to, and the development of, all aerial parts of the plants was recorded."}}, "note": "Counter-ions that a name gives are not always drawn."}
{"smiles": "O=C(O)c1c(Cl)ccc2cc(Cl)cnc12", "note": "[(B1.3), 3,7-dichloroquinoline-8-carboxylic acid]", "values": [{"measurement": "Herbicidal action (%) against Echinochloa crus galli", "setting": "[1]; 560 g A.S./ha", "value": 25, "unit": "%"}]}
{"smiles": "Cc1nn(-c2cc(CC(Cl)C(=O)O)c(Cl)cc2F)c(=O)n1C(F)F", "note": "(racemic) [(B2.13), (RS)-2-chloro-3-[2-chloro-5-(4-difluoromethyl-4,5-dihydro-3-methyl-5-oxo-1H-1,2,4-triazol-1-yl)-4-fluorophenyl]propionic acid]", "values": [{"measurement": "Herbicidal action (%) against Cyperus difformis", "setting": "[2]; 50 g A.S./ha", "value": 28, "unit": "%"}]}
{"smiles": "COc1cc(OC)nc(NC(=O)NS(=O)(=O)c2c(C(=O)O)cnn2C)n1", "note": "[(B2.8), 5-(4,6-dimethoxypyrimidin-2-ylcarbamoylsulfamoyl)-1-methylpyrazole-4-carboxylic acid]", "values": [{"measurement": "Herbicidal action (%) against Cyperus difformis", "setting": "[2]; 15 g A.S./ha", "value": 65, "unit": "%"}]}
{"smiles": "CP(=O)(O)CCC(N)C(=O)O", "note": "(centres unmarked) [(A1.2), glufosinate-monoammonium salt]", "values": [{"measurement": "Herbicidal action (%) against Echinochloa crus-galli", "setting": "[3]; 400 g A.S./ha", "value": 93, "unit": "%"}, {"measurement": "Herbicidal action (%) against Ipomoea sp.", "setting": "[4]; 400 g A.S./ha", "value": 93, "unit": "%"}, {"measurement": "Herbicidal action (%) against Echinochloa crus galli", "setting": "[5]; 250 g A.S./ha", "value": 63, "unit": "%"}, {"measurement": "Herbicidal action (%) against Echinochloa crus galli", "setting": "[5]; 500 g A.S./ha", "value": 87, "unit": "%"}, {"measurement": "Herbicidal action (%) against Cyperus difformis", "setting": "[2]; 400 g A.S./ha", "value": 18, "unit": "%"}, {"measurement": "Herbicidal action (%) against Cyperus difformis", "setting": "[2]; 500 g A.S./ha", "value": 40, "unit": "%"}, {"measurement": "Herbicidal action (%) against Cyperus iria", "setting": "[6]; 400 g A.S./ha", "value": 35, "unit": "%"}, {"measurement": "Herbicidal action (%) against Echinochloa crus galli", "setting": "[1]; 400 g A.S./ha", "value": 65, "unit": "%"}, {"measurement": "Herbicidal action (%) against Aeschynomene rudis", "setting": "[7]; 250 g A.S./ha", "value": 65, "unit": "%"}, {"measurement": "Herbicidal action (%) against Aeschynomene rudis", "setting": "[7]; 500 g A.S./ha", "value": 83, "unit": "%"}, {"measurement": "Herbicidal action (%) against Echinochloa crus galli", "setting": "[8]; 500 g A.S./ha", "value": 18, "unit": "%"}, {"measurement": "Herbicidal action (%) against Echinochloa crus-galli", "setting": "[9]; 250 g A.S./ha", "value": 35, "unit": "%"}, {"measurement": "Herbicidal action (%) against Echinochloa crus-galli", "setting": "[9]; 500 g A.S./ha", "value": 75, "unit": "%"}]}
{"smiles": "CCSC(=O)N1CCCCCC1", "note": "[(B1.1), S-ethyl azepane-1-thiocarboxylate]", "values": [{"measurement": "Herbicidal action (%) against Echinochloa crus galli", "setting": "[8]; 4480 g A.S./ha", "value": 0, "unit": "%"}]}
{"smiles": "COC(=O)c1ccccc1CS(=O)(=O)NC(=O)Nc1nc(OC)cc(OC)n1", "note": "[(B2.3), methyl 2-[[[[[(4,6-dimethoxy-2-pyrimidinyl)amino]carbonyl]-amino]sulfonyl]methyl]benzoate]", "values": [{"measurement": "Herbicidal action (%) against Echinochloa crus-galli", "setting": "[3]; 45 g A.S./ha", "value": 0, "unit": "%"}, {"measurement": "Herbicidal action (%) against Cyperus difformis", "setting": "[2]; 35 g A.S./ha", "value": 55, "unit": "%"}, {"measurement": "Herbicidal action (%) against Cyperus difformis", "setting": "[2]; 70 g A.S./ha", "value": 87, "unit": "%"}]}
{"smiles": "CCC(=O)Nc1ccc(Cl)c(Cl)c1", "note": "[(B1.4), N-(3,4-dichlorophenyl)-propanamide]", "values": [{"measurement": "Herbicidal action (%) against Ipomoea sp.", "setting": "[4]; 3360 g A.S./ha", "value": 90, "unit": "%"}]}
{"smiles": "COc1nc(C)nc(NC(=O)NS(=O)(=O)c2ccccc2C(=O)O)n1", "note": "[(B2.5), 2-[[[[(4-methoxy-6-methyl-1,3,5-triazin-2-yl)amino]carbonyl]amino]sulfonyl]benzoic acid]", "values": [{"measurement": "Herbicidal action (%) against Cyperus iria", "setting": "[6]; 1 g A.S./ha", "value": 35, "unit": "%"}]}
{"smiles": "CC1(C)CON(Cc2ccccc2Cl)C1=O", "note": "[(B1.12), 2-(2-chlorobenzyl)-4,4-dimethyl-1,2-oxazolidin-3-one]", "values": [{"measurement": "Herbicidal action (%) against Echinochloa crus galli", "setting": "[5]; 400 g A.S./ha", "value": 7, "unit": "%"}]}
{"smiles": "CCS(=O)(=O)Oc1ccc2c(c1)C(C)(C)CO2", "note": "[(B2.15), 2,3-dihydro-3,3-dimethylbenzofuran-5-yl ethanesulfonate]", "values": [{"measurement": "Herbicidal action (%) against Cyperus difformis", "setting": "[2]; 200 g A.S./ha", "value": 35, "unit": "%"}]}
{"smiles": "CCC(CC)Nc1c([N+](=O)[O-])cc(C)c(C)c1[N+](=O)[O-]", "note": "[(B1.5), N-(1-ethylpropyl)-2,6-dinitro-3,4-xylidine]", "values": [{"measurement": "Herbicidal action (%) against Cyperus iria", "setting": "[6]; 1000 g A.S./ha", "value": 33, "unit": "%"}]}
{"smiles": "CC(C)Oc1cc(-n2nc(C(C)(C)C)oc2=O)c(Cl)cc1Cl", "note": "[(B1.21)]", "values": [{"measurement": "Herbicidal action (%) against Cyperus iria", "setting": "[6]; 250 g A.S./ha", "value": 37, "unit": "%"}]}
{"smiles": "CCN(CC)C(=O)SCc1ccc(Cl)cc1", "note": "[(B1.2), S-4-chlorobenzyl diethylthiocarbamate]", "values": [{"measurement": "Herbicidal action (%) against Cyperus iria", "setting": "[6]; 1500 g A.S./ha", "value": 57, "unit": "%"}]}
{"smiles": "CCc1cnc(C2=NC(C)(C(C)C)C(=O)N2)c(C(=O)O)c1", "note": "(centres unmarked) [(A3.2), imazethapyr]", "values": [{"measurement": "Herbicidal action (%) against Echinochloa crus galli", "setting": "[8]; 75 g A.S./ha", "value": 67, "unit": "%"}]}
{"smiles": "O=C(O)COc1ccc(Cl)cc1Cl", "note": "[(B2.1), (2,4-dichlorophenoxy)acetic acid]", "values": [{"measurement": "Herbicidal action (%) against Cyperus iria", "setting": "[6]; 500 g A.S./ha", "value": 62, "unit": "%"}]}
{"smiles": "CCOc1ccccc1OS(=O)(=O)NC(=O)Nc1nc(OC)cc(OC)n1", "note": "[(B2.4), 1-(4,6-dimethoxypyrimidin-2-yl)-3-(2-ethoxyphenoxysutfonyl)urea]", "values": [{"measurement": "Herbicidal action (%) against Cyperus difformis", "setting": "[10]", "value": 40, "unit": "%"}]}
{"smiles": "CCCC(=NOCC(C)Oc1ccc(Cl)cc1)C1=C(O)CC(C2CCCSC2)CC1=O", "note": "(centres unmarked) [(B4.4)]", "values": [{"measurement": "Herbicidal action (%) against Echinochloa crus-galli", "setting": "[9]; 37.5 g A.S./ha", "value": 50, "unit": "%"}, {"measurement": "Herbicidal action (%) against Echinochloa crus-galli", "setting": "[9]; 75 g A.S./ha", "value": 83, "unit": "%"}]}
